Here are results for six molecules from patent publication EP0440303A1 (PROBICOM RESEARCH B.V., priority 1990, dated 1991).

Like-named read-outs stand apart in the source and are kept apart here.

In general, inhibition refers to the share of the control response that was lost under treatment. As usually defined, the Km is the concentration of substrate that gives half-maximal velocity. By kcat is commonly meant the maximal rate divided by the concentration of active sites.

In data set [1] the target is T1, tripeptidase of L.lactis subsp. cremoris Wg2 (Lactococcus lactis subsp. cremoris, UniProt P0C2T7).
T1 sequence (P0C2T7 1-413): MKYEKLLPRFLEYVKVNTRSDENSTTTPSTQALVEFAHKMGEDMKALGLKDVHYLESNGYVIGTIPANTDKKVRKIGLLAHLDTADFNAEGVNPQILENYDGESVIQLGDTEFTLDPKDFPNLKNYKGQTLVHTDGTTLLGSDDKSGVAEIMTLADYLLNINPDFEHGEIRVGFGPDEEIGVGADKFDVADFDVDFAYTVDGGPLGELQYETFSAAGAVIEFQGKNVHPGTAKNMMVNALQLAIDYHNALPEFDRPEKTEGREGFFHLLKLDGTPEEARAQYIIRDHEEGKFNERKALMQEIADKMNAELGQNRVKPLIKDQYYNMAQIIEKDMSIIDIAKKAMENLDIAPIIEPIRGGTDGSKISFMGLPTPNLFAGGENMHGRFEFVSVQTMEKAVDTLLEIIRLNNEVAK
Kind of data set: Effects of chemical agents on the peptidase activity (leu3 hydrolysis). The class given is biochemical.

Data set [2] deals with T1, tripeptidase of L.lactis subsp. cremoris Wg2. Kind of data set: biochemical. Particulars: read-out: inhibition of the enzyme activity.
Substrate in data set [3]: CC(C)C[C@H](NC(=O)[C@H](CC(C)C)NC(=O)[C@@H](N)CC(C)C)C(=O)O
Kind of data set: Determination of kinetic parameters for leu3 hydrolysis (coupled enzyme reaction). It is filed as biochemical, L.lactis subsp. cremoris Wg2. Particulars: other: leu₃ as substrate, 30°C.

As for `OCCS` [β-Mercaptoethanol, β-mercaptoethanol], in data set [1] (NEM 0.5 mM, cystine 0.05 mM, phenylarsine oxide 0.1 mM, DTT 1 mM, β-mercaptoethanol 0.4 mM, ferricyanide 3 mM after the reducing agents), the “effect on the enzyme activity (in words)” value was “strong inhibition”. For the same molecule, the activity at 400 µM in data set [1] (pH 7, read-out: relative activity (%)) came to 14%. For the same molecule, the “effect on the enzyme (summary in words)” value in data set [1] (summary statement, concentration not given) is given as “strong inhibition”.
Turning to `COC(CNC(=O)c1ccccc1OCC(=O)O)[CH2][Hg][OH]` (stereo not shown) [Mersalyl, o-(3-hydroxymercuri-2-methoxypropyl)carbamylphenoxyacetate], the “effect on the enzyme (summary in words)” value in data set [1] is listed as “not inhibited”.
On the same count and under the same terms, the value for `O=C(O)c1cc[c]([Hg][Cl])cc1` [pCMB, p-chloromercuribenzoate] was “not inhibited”.
The same measure, in the same setting: in the case of `O=S(=O)(O)c1cc[c]([Hg][Cl])cc1` [pCMBS, p-chloromercuribenzenesulphonate] it was “not inhibited”.
On to `O=C(O)CN(CCN(CC(=O)O)CC(=O)O)CC(=O)O` [EDTA], for which, in data set [2], the inhibition at 200 µM amounted to 79%.

B1: tripeptidase of L.lactis subsp. cremoris Wg2 (Lactococcus cremoris) (protein)
chain: MKYEKLLPRFLEYVKVNTRSDENSTTTPSTQALVEFAHKMGEDMKALGLKDVHYLESNGYVIGTIPANTDKKVRKIGLLAHLDTADFNAEGVNPQILENYDGESVIQLGDTEFTLDPKDFPNLKNYKGQTLVHTDGTTLLGSDDKSGVAEIMTLADYLLNINPDFEHGEIRVGFGPDEEIGVGADKFDVADFDVDFAYTVDGGPLGELQYETFSAAGAVIEFQGKNVHPGTAKNMMVNALQLAIDYHNALPEFDRPEKTEGREGFFHLLKLDGTPEEARAQYIIRDHEEGKFNERKALMQEIADKMNAELGQNRVKPLIKDQYYNMAQIIEKDMSIIDIAKKAMENLDIAPIIEPIRGGTDGSKISFMGLPTPNLFAGGENMHGRFEFVSVQTMEKAVDTLLEIIRLNNEVAK
notes: the resulting supernatant (i.e. cell-free extract) was used for enzyme isolation; made in house; host or cells: Natural producer L. lactis subsp. cremoris Wg2 (proteinase-negative variant), not recombinant; Purified by DEAE-Sephacel, Phenyl-Sepharose, Sephadex G-100 SF and HPLC TSK G3000 SW
Consider B1, for which, in data set [3], the Km worked out at 150 µM, the Vmax was determined as 151 µmol/min.mg protein and the kcat came out at 264 s⁻¹.
